Measurements as given in US5834010A, “Triacetin as a penetration enhancer for transdermal delivery of a basic drug” (priority 1997, dated 1998).
Read-outs that look alike come from different tables or passages of the source.

What was measured:
[1] = In vitro human cadaver skin flux of oxybutynin free base from adhesive matrix patches (modified Franz cells)
Protocol: In vitro human cadaver skin flux studies were conducted using modified Franz non-jacketed permeation cells. The temperature of the cells was maintained at 32° C. by placing the cells in a circulating water bath positioned over a stirring module. The epidermal membrane was separated from the human cadaver whole skin by the heat-separation method of Kligman & Christopher, 88 Arch. Dermatol. 702 (1963), hereby incorporated by reference, involving treating the full thickness skin at 60° C. for 60 seconds, after which time the stratum corneum and the epidermis (epidermal membrane) were gently peeled from the dermis.
For skin flux studies of matrix devices, the epidermal membrane was cut into rectangular strips, and the matrix device was cut into 0.96 cm^2 circular discs. The release liner was peeled from the disc, and the disc was laminated onto the stratum corneum surface of the epidermal membrane to form a skin-matrix laminate. The skin-matrix laminate was then loaded between the donor and receiver compartments of a diffusion cell with the epidermal side facing the receiver compartment. The laminate was clamped in place, and the receiver compartment was then filled with an appropriate receiving solution for a selected drug. The receiving solution was selected such that the drug was stable in the solution, the subsequent assay of the drug was not interfered with, and solubility of the drug was adequate to ensure sink conditions throughout the experiment. The diffusion cell was then placed in a circulating water bath calibrated to maintain the skin surface temperature at 32°±1° C. At predetermined sampling intervals, the entire contents of the receiver compartment were collected for drug quantitation, and the receiver compartment was filled with fresh receiving solution, taking care to eliminate any air bubbles at the skin/solution interface.
The cumulative amount of drug permeating through the epidermal membrane, Qt (μg/cm^2), at any time t was determined from the following formula: [formula] where Cn is the concentration (μg/ml) of the drug in the receiver sample for the corresponding sample time, V is the volume of fluid in the receiver chamber (~6.3 cm^3), and A is the diffusional area of the cell (0.64 cm^2). The slope of the best fit line to the plot of Qt vs. t gives the steady state flux (Jss, μg/cm^2 /hr); the intercept of this line on the time axis give the lag time (tL,h).
Matrix patches containing varying amounts of oxybutynin free base and penetration enhancers were prepared and tested as described above. The matrix systems consisted of 5 to 20% by weight of oxybutynin free base and 0 to 20% by weight of the enhancer contained in a medical grade acrylic copolymer adhesive.
The matrix formulations were prepared as follows. First, the solids content of the adhesive was determined by weighing a small amount of the adhesive solution in a preweighed aluminum dish. The solvent was evaporated by overnight drying in a convection oven maintained at 80° C. and the weight of the residue (dry adhesive) and percent solid adhesive content of the solution were determined. Once the solids content was determined, a known weight of the acrylic copolymer adhesive solution was weighed into a glass bottle. From the weight of the adhesive solution and the percent solid adhesive content, the amount of adhesive in the solution was calculated. Oxybutynin free base and enhancer were added to the bottle in proportions to yield the selected final composition. The bottle was then tightly capped, sealed with laboratory film, and rotated overnight until all ingredients had completely dissolved and the resultant solution was visually clear.
Approximately 8 ml of the solution was then dispensed on a silanized polyester release liner and cast with a 10 mil gap casting knife. The casting was then dried in a convection oven at 70° C. for 15 minutes to evaporate the solvent and to yield a dried film approximately 0.002 inch thick.

[2] = In vitro human cadaver skin flux of oxybutynin free base from liquid reservoir gel formulations; assay type: in vitro ADME
Protocol: For skin flux studies of gel formulations (i.e., for liquid reservoir patch designs), the epidermal membrane was cut and placed between two halves of the permeation cell with the stratum corneum facing the donor compartment. The skin was allowed to hydrate at 32° C. overnight with 0.02% (w/v) sodium azide solution in the receiver compartment. The following morning, 75 μl of a gelled formulation was placed into a cavity created by placing a polytetrafluoroethylene washer over the stratum corneum surface. The cavity was then occluded by clamping an occlusive backing over the washer and gel. An appropriate receiving solution for a selected drug was placed in the receiver compartment in contact with the dermal side of the epidermis.
Liquid reservoir gel formulations containing oxybutynin free base and triacetin were tested as described above. Such liquid reservoir gel formulations were prepared in 10 ml quantities. Ethanol, water, glycerin, and triacetin were mixed in selected proportions in a capped vial. Then, 400 mg of oxybutynin free base was added to the vial, and the vial was capped and ultrasonicated to completely dissolve the drug. Next, 0.3 g of modified hydroxyethyl cellulose (NATROSOL PLUS 330CS, Aqualon, Wilmington, Del.) as a gelling agent was added to the mixture and the contents were mixed thoroughly and gently rotated overnight to completely dissolve the gelling agent.

[3] = Enhancement of transdermal penetration, general statement; assay type: in vitro ADME
Description: As used herein, the terms "enhancement", "penetration enhancement" or "permeation enhancement" mean an increase in the permeability of a biological membrane (i.e. skin or mucosa) to a drug, so as to increase the rate at which the drug permeates through the membrane. "Permeation enhancer," "enhancer," "penetration enhancer," or similar term means a material that achieves such permeation enhancement, and an "effective amount" of an enhancer means an amount effective to enhance penetration through the skin or mucosa of a selected agent to a selected degree. The enhanced permeation as effected though the use of such enhancers can be observed, for example, by measuring the rate of diffusion of the drug through animal or human skin using a diffusion cell apparatus. Such a diffusion cell is described by Merritt et al., Diffusion Apparatus for Skin Penetration, 1 J. of Controlled Release 61 (1984), incorporated herein by reference.

[4] = propylene glycol/linoleic acid enhancer system; cited from earlier work
[5] = Allen, U.S. Pat. No. 4,895,727; cited from earlier work
[6] = plaster with glycol and surfactant, WO9309783-A1; cited from earlier work
[7] = isosorbide dinitrate, JP05148141-A; cited from earlier work

CCCCCCCCCCCCCC(=O)OC(C)C [isopropyl myristate, reference compound]
exhibited the ability to increase transdermal skin flux of oxybutynin free base ([1]; matrix system, TSR adhesive): none of the well known penetration enhancers tested

sorbitan monooleate [reference compound]
exhibited the ability to increase transdermal skin flux of oxybutynin free base ([1]; matrix system, TSR adhesive): none of the well known penetration enhancers tested

CCCCCCCCCCCCO [lauryl alcohol, reference compound]
exhibited the ability to increase transdermal skin flux of oxybutynin free base ([1]; matrix system, TSR adhesive): none of the well known penetration enhancers tested

CN1CCCC1=O [N-methyl pyrrolidone, reference compound]
exhibited the ability to increase transdermal skin flux of oxybutynin free base [1]: none of the well known penetration enhancers tested

CC(=O)OCC(COC(C)=O)OC(C)=O [triacetin, glyceryl triacetate]
effect on skin flux of oxybutynin free base [1]: significantly increases the skin flux of oxybutynin free base | penetration enhancement with liquid reservoir patches [2]: no penetration enhancement of basic drugs (including oxybutynin) or other drugs has been observed | enhancing transdermal penetration of basic drugs ([3]; basic drugs, particularly pKa of about 8.0 or above, matrix patch): effective in enhancing transdermal penetration of basic drugs | enhancing transdermal penetration of neutral or acidic drugs ([3]; neutral or acidic drugs): not of neutral or acidic drugs | flux of oxymorphone with increasing amounts of triacetin and decreasing linoleic acid [4]: decreasing flux | lag time for permeation of oxymorphone with increasing amounts of triacetin and decreasing linoleic acid [4]: increasing lag time | antifungal activity [5]: has activity as an antifungal agent | percutaneous absorption of piroxicam [6]: enhances percutaneous absorption of piroxicam | penetration enhancing effect of triacetin [7]: shown only in conjunction with a neutral, solvent-acting drug

CCCCCCCC/C=C\CCCCCCCC(=O)OCC(O)CO (centres unmarked) [glycerol monooleate, reference compound]
exhibited the ability to increase transdermal skin flux of oxybutynin free base ([1]; matrix system, TSR adhesive): none of the well known penetration enhancers tested
